Reference: PubChem BioAssay AID2772 (The Scripps Research Institute Molecular Screening Center, 2010)
The source made the active and inactive calls. The rule behind the calls is not given here.

Molecular target: Signal transducer and activator of transcription 1-alpha/beta (Homo sapiens) (UniProt P42224)
Assay: inhibition of STAT1-driven luciferase signal – cell-based, luminescence, NIH 3T3, dose response, late-stage follow-up (AID 2772)
Conditions: NIH 3T3 fibroblasts, STAT1 luciferase reporter

Chain of Signal transducer and activator of transcription 1-alpha/beta (Homo sapiens) (P42224 whole entry, looked up): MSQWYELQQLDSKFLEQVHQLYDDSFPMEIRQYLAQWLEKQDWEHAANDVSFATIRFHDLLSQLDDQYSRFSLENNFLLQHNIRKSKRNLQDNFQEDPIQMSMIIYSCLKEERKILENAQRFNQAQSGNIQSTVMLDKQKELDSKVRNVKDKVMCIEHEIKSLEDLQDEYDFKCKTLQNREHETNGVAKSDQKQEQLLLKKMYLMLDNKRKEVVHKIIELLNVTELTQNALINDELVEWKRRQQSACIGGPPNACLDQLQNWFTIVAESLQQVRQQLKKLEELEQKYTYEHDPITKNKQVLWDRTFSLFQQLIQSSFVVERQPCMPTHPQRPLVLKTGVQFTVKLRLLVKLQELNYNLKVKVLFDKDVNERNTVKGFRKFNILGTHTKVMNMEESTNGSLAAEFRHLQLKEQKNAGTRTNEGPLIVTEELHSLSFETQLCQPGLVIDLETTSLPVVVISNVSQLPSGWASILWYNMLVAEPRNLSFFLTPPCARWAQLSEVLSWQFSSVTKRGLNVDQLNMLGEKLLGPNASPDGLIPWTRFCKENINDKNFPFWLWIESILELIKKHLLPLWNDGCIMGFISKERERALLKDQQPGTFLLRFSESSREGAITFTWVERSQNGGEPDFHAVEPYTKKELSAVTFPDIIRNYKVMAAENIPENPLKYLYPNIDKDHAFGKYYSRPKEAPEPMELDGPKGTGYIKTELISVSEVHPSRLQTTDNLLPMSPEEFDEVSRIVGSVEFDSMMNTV

IC50 | Compound
> 55.7 µM (inactive) | CCOc1ccccc1NC(=O)C(c1ccccc1)N1CCN(S(=O)(=O)c2ccc(F)c(F)c2F)CC1 (centres undefined)
inactive | COc1cccc(-c2csc(Cn3c(CN4CCOCC4)nc4ccccc4c3=O)n2)c1
inactive | O=C1c2ccccc2N/C(=C\N2CCOCC2)N1Cc1nc(-c2ccccc2F)cs1
inactive | CN1CCN(Cc2nc3ccccc3c(=O)n2Cc2nc(-c3ccccc3F)cs2)CC1
> 55.7 µM (inactive) | O=C(OCC1CCCCC1)c1nn(-c2ccccc2)c(=O)c2ccccc12
> 55.7 µM (inactive) | C=C1NN(c2ccc(C(=O)N3CCC(Cc4ccccc4)CC3)cc2)C(=O)c2ccccc21
> 55.7 µM (inactive) | CN(Cc1ccccc1N1CCCC1)C(=O)c1nn(-c2ccccc2)c(=O)c2ccccc12
> 55.7 µM (inactive) | COc1cc2c(cc1OC)C(=O)N(Cc1cc(-c3ccccc3OC)no1)C(=CN1CCOCC1)N2
> 55.7 µM (inactive) | O=C(c1ccc(-n2c(=S)[nH]c3ccccc3c2=O)cc1)N1CCN(c2ccc(F)cc2)CC1
> 55.7 µM (inactive) | CNC(=O)c1nn(-c2ccc(F)cc2)c(=O)c2ccccc12
> 55.7 µM (inactive) | CCC(C(=O)Nc1ccccc1)N1CCN(S(=O)(=O)c2ccc3c(c2)CCC3)CC1 (centres undefined)
> 55.7 µM (inactive) | O=C(Nc1ccc(F)cc1)C(c1ccccc1)N1CCN(C(=O)c2ccccc2)CC1 (centres undefined)
> 55.7 µM (inactive) | O=C(c1ccc(-n2c(=S)[nH]c3ccccc3c2=O)cc1)N1CCN(C(=O)c2ccco2)CC1
inactive | COc1cccc(NC(=O)C(c2ccccc2)N2CCN(S(=O)(=O)c3ccc(C)cc3)CC2)c1 (centres undefined)
inactive | CCOC(=O)N1CCN(C(=O)c2ccc(-n3c(=S)[nH]c4ccccc4c3=O)cc2)CC1
> 55.7 µM (inactive) | COc1ccc(C)cc1NC(=O)C(c1ccccc1)N1CCN(S(=O)(=O)c2ccc(F)cc2)CC1 (centres undefined)
> 55.7 µM (inactive) | COC(=O)c1nn(-c2ccc(F)cc2)c(=O)c2ccccc12
inactive | O=C1c2ccccc2N/C(=C\N2CCOCC2)N1Cc1nc(-c2ccc(F)c(F)c2)cs1
> 55.7 µM (inactive) | O=C(O)c1nn(-c2ccc(F)cc2)c(=O)c2ccccc12
> 55.7 µM (inactive) | CC(=O)c1ccc(S(=O)(=O)N2CCN(C(C(=O)Nc3ccc(C)cc3)c3ccccc3)CC2)cc1 (centres undefined)
> 55.7 µM (inactive) | CN1CCN(C(=O)c2ccc(-n3c(=S)[nH]c4ccccc4c3=O)cc2)CC1
> 55.7 µM (inactive) | COc1ccc(N2CCN(C(=O)c3ccc(-n4c(=S)[nH]c5ccccc5c4=O)cc3)CC2)cc1
> 55.7 µM (inactive) | Cc1ccc(-n2nc(C(=O)O)c3ccccc3c2=O)cc1C
> 55.7 µM (inactive) | CC(C(=O)Nc1ccccc1)N1CCN(S(=O)(=O)c2ccccc2)CC1 (centres undefined)
inactive | O=c1cc(CSc2nc3ccccc3c(=O)[nH]2)c2ccc(O)cc2o1
> 55.7 µM (inactive) | N#Cc1ccc(S(=O)(=O)N2CCN(C(C(=O)Nc3ccc(F)cc3)c3ccccc3)CC2)cc1 (centres undefined)
> 18.6 µM (inactive) | CCOc1ccc(-c2csc(Cn3c(CN4CCN(C)CC4)nc4ccccc4c3=O)n2)cc1

IC50 | Compound
> 55.7 µM (inactive) | Cc1cc2oc(=O)cc(CSc3nc4ccccc4c(=O)[nH]3)c2cc1Cl
inactive | CN(C)Cc1nc2ccccc2c(=O)n1Cc1nc(C(C)(C)C)cs1
> 55.7 µM (inactive) | CN1CCN(C=C2Nc3ccccc3C(=O)N2Cc2nc(C34CC5CC(CC(C5)C3)C4)cs2)CC1
> 55.7 µM (inactive) | O=C(Nc1ccc(F)cc1)C(c1ccccc1)N1CCN(S(=O)(=O)c2ccc3c(c2)OCCO3)CC1 (centres undefined)
> 18.6 µM (inactive) | CCC(C)c1ccc(-c2csc(CN3C(=O)c4ccccc4N/C3=C\N3CCN(C)CC3)n2)cc1 (centres undefined)
> 55.7 µM (inactive) | Cc1ccc(NC(=O)C(c2ccccc2)N2CCN(S(=O)(=O)c3ccccc3)CC2)cc1 (centres undefined)
> 55.7 µM (inactive) | O=C(Nc1ccc(F)cc1)C(c1ccccc1)N1CCN(S(=O)(=O)c2ccccc2)CC1 (centres undefined)
> 55.7 µM (inactive) | Cc1ccc2oc(=O)cc(CSc3nc(-c4ccccc4)c4ccccc4n3)c2c1
> 18.6 µM (inactive) | CN(C)Cc1nc2ccccc2c(=O)n1Cc1nc(-c2cccc([N+](=O)[O-])c2)cs1
> 55.7 µM (inactive) | COc1cc2c(cc1OC)C(=O)N(Cc1coc(-c3ccccc3)n1)C(=CN1CCOCC1)N2
> 55.7 µM (inactive) | O=C(c1ccc(-n2c(=S)[nH]c3ccccc3c2=O)cc1)N1CCN(c2ccccc2)CC1
> 55.7 µM (inactive) | CCOc1ccc2oc(=O)cc(CSc3nc4ccccc4c(=O)[nH]3)c2c1
> 55.7 µM (inactive) | Cc1ccc(C)c(S(=O)(=O)N2CCN(C(C(=O)Nc3ccc(F)cc3)c3ccccc3)CC2)c1 (centres undefined)
> 55.7 µM (inactive) | COc1cc2c(cc1OC)C(=O)N(Cc1nnc(-c3ccc(Cl)cc3)o1)C(=CN1CCOCC1)N2
> 55.7 µM (inactive) | Cc1ccc(C)c(NC(=O)C(c2ccccc2)N2CCN(S(=O)(=O)c3ccccc3C#N)CC2)c1 (centres undefined)
inactive | Cc1ccc(-n2nc(C(=O)O)c3ccccc3c2=O)cc1Cl
inactive | CN1CCN(Cc2nc3ccccc3c(=O)n2Cc2nc(-c3cccc([N+](=O)[O-])c3)cs2)CC1
> 55.7 µM (inactive) | O=C(Nc1ccc(F)cc1)C(c1ccccc1)N1CCN(S(=O)(=O)c2ccc3ccccc3c2)CC1 (centres undefined)
> 55.7 µM (inactive) | O=C(Nc1ccc(Cl)c(C(F)(F)F)c1)C(c1ccccc1)N1CCN(S(=O)(=O)c2ccccc2)CC1 (centres undefined)
> 55.7 µM (inactive) | O=C(c1ccc(-n2c(=S)[nH]c3ccccc3c2=O)cc1)N1CCN(C2CCCCC2)CC1
> 55.7 µM (inactive) | CN(C)C(=O)c1nn(-c2ccc(F)cc2)c(=O)c2ccccc12
> 55.7 µM (inactive) | CCOC(=O)c1ccc(S(=O)(=O)N2CCN(C(C(=O)Nc3ccc(OC)c(Cl)c3)c3ccccc3)CC2)cc1 (centres undefined)
inactive | O=c1c2ccccc2nc(CN2CCOCC2)n1Cc1nc(-c2ccc[nH]2)cs1
> 55.7 µM (inactive) | CC(C(=O)Nc1ccc(F)c(F)c1)N1CCN(S(=O)(=O)c2ccc(C(F)(F)F)cc2)CC1 (centres undefined)
> 55.7 µM (inactive) | NC(=O)c1ccc(S(=O)(=O)N2CCN(C(C(=O)Nc3ccc(F)cc3)c3ccccc3)CC2)cc1 (centres undefined)
> 55.7 µM (inactive) | N#Cc1ccccc1S(=O)(=O)N1CCN(C(C(=O)Nc2ccc(F)cc2)c2ccccc2)CC1 (centres undefined)
> 55.7 µM (inactive) | CCOC(=O)Nc1ccc2c(CSc3nc4ccccc4c(=O)[nH]3)cc(=O)oc2c1
